These results are taken from PubChem BioAssay (NCI).

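Step 1: Grow cells in 96-well plates. Step 2: Expose to compound for 48 hours at 5 concentrations. Step 3: Interpolate endpoints linearly; if unreached, use highest concentration. At the GI50, growth is halved. TGI denotes the concentration required for complete inhibition of growth.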

Holding throughout (test): DTP human tumour cell line panel, 48 h
Assay [1] concerns SN12C renal.
Assay [2] relates to HS 578T breast.
Assay [3] concerns HOP-62 NSCLC.
For assay [4], the system named is SK-MEL-2 melanoma.
Assay [5] relates to HT29 colon.
In assay [6] the test system is OVCAR-5 ovarian.
Assay [7] relates to OVCAR-4 ovarian.
The test system of assay [8] is NCI-H23 lung.
The subject of assay [9] is MALME-3M melanoma.
For assay [10], the system named is MCF7 breast.

As usually defined, the TGI is the concentration at which net growth stops. The low end stands for more potent growth arrest, the high end for less potent growth arrest. For the compound `NC(Cc1cccnn1)C(=O)O` (stereo not given), the TGI in [1], in [2], in assay [3], in [4], in assay [5] and in assay [6] was greater than 100 µM throughout. Moreover, the TGI in assay [7], in [8], in [9] and in assay [10] was greater than 100 µM each time.

The GI50 is the concentration at which growth is held to half of that of the control. In the case of `C#CCOc1cccc(Nc2ncnc3cc(NC(=O)C=C)ccc23)c1`, the GI50 is 7.63 µM in [1]; 5.87 µM in assay [2]; 13.4 µM in assay [3]; 20.9 µM in assay [4]; 3.66 µM in assay [5]; 14.1 µM in assay [6]. In addition, the GI50 in assay [7] is 29.6 µM; in assay [8], 26.6 µM; in assay [9] it was 17.6 µM; in assay [10], 3.65 µM. The TGI was greater than 100 µM in assay [1]; 89.8 µM in assay [2]; greater than 100 µM in assay [3]; greater than 100 µM in assay [4]; greater than 100 µM in assay [5]; greater than 100 µM in assay [6]. The concentration for total growth inhibition (TGI) in [7], in assay [8], in assay [9] and in [10] was greater than 100 µM in each case.

With `CC(C)(C)C(=O)c1c(C(F)(F)F)n([O-])c2cc(Cl)c(Cl)cc2[n+]1=O`, the GI50 is 0.778 µM in assay [1]; 0.16 µM in assay [2]; 1.53 µM in assay [3]; 0.903 µM in assay [4]; 0.192 µM in assay [5]; 0.642 µM in [6]. The GI50 is 1.14 µM in [7], 0.849 µM in [8], 1.34 µM in [9] and 0.168 µM in assay [10]. Further, the TGI in [1] was found to be 2.09 µM; in assay [2] it was 0.554 µM; in assay [3] it was 2.89 µM; in assay [4], 2.28 µM; in assay [5], 0.546 µM; in assay [6], 2.19 µM. Besides, the total growth inhibition concentration (TGI) in [7] came to 2.37 µM; in assay [8], 2.3 µM; in assay [9], 2.73 µM; in assay [10], 0.566 µM.

`C=C1C(=O)O[C@@H]2CC(CO)=C([C@@H](C)CCCO)[C@@H](OC(=O)/C(C)=C\C)[C@H]12`: the TGI in assay [1] was 43.5 µM; in [2], greater than 100 µM; in [3], greater than 100 µM; in assay [4], 70.5 µM; in assay [5] it was 26.6 µM; in [6], greater than 56.9 µM. In addition, the TGI in assay [7] was greater than 84.9 µM; in assay [8] it was 38.8 µM; in assay [9], 32.5 µM; in assay [10] it was 23.4 µM.

In the case of `COc1ccc(/C=C2\COc3ccc(O)c(O)c3C2=O)cc1OC`, the GI50 in [1] is 1.39 µM; in assay [2], 2.23 µM; in [3], 5.98 µM; in assay [4], 2.02 µM; in assay [5], 2.12 µM; in assay [6], 1.73 µM. Besides, the GI50 in assay [7] was 1.61 µM; in [8], 1.89 µM; in [9] it was 1.33 µM; in assay [10], 0.682 µM. The total growth inhibition concentration (TGI) in assay [1] was 5.16 µM; in assay [2], 8.29 µM; in assay [3], 39.3 µM; in [4] it was 5.28 µM; in [5], 5.2 µM; in [6], 3.8 µM. Moreover, the TGI in assay [7] was 13.3 µM; in assay [8] it was 5.56 µM; in [9] it was 3.2 µM; in [10], greater than 100 µM.

On to `CC(C)c1[nH]nc2c(NCc3ccc(-c4ccccn4)cc3)nc(SCCN(C)C)nc12`, for which the GI50 in [1] was less than 0.0199 µM; in [2], 0.0271 µM; in [3], less than 0.0177 µM; in assay [4] it was 0.0798 µM; in assay [5], less than 0.0158 µM; in assay [6] it was 0.0572 µM. Moreover, the 50% growth inhibitory concentration (GI50) in assay [7] is 0.0349 µM; in assay [8] it was 0.0646 µM; in assay [9], 0.0986 µM; in [10], less than 0.0218 µM. Besides, the concentration for total growth inhibition (TGI) in assay [1] is 12.3 µM; in assay [2] it was 9.4 µM; in assay [3] it was 0.236 µM; in assay [4] it was 0.269 µM; in assay [5], 1.21 µM; in assay [6], 11.2 µM. For the same compound, the TGI came to 1.53 µM in [7], 0.598 µM in [8], 0.642 µM in [9] and 10.5 µM in assay [10].

For `O=C(NCCCl)Nc1ccccc1`, the concentration for total growth inhibition (TGI) in assay [1], in assay [2], in assay [3], in assay [4], in assay [5] and in [6] was greater than 100 µM each time. Also, the total growth inhibition concentration (TGI) in assay [7], in assay [8], in [9] and in [10] was greater than 100 µM in each case.

`OC(CN1CCCC2CCCCC21)c1cc2ccccc2c2ccccc12` (stereo not given): the GI50 in [1] is 3.38 µM; in assay [2], 2.37 µM; in [3], 1.84 µM; in [4] it was 1.67 µM; in [5], 1.32 µM; in assay [6], 1.95 µM. Further, the GI50 in assay [7] is 2.39 µM; in assay [8] it was 2.14 µM; in [9] it was 1.53 µM; in [10], 1.84 µM. Moreover, the TGI in assay [1] was 13.4 µM; in assay [2] it was 7.46 µM; in assay [3] it was 3.91 µM; in assay [4] it was 3.31 µM; in assay [5] it was 3.07 µM; in assay [6], 5.64 µM. The TGI in [7] was 12.4 µM; in assay [8], 7.14 µM; in assay [9], 3.45 µM; in assay [10] it was 3.51 µM.
